# Source: US4443436A, “C-20-Modified macrolide derivatives of the macrolide antibiotics tylosin, desmycosin, macrocin, and lactenocin” (Eli Lilly and Company, priority 1982, dated 1984)
# Like-named read-outs stand apart in the source and are kept apart here.
# Columns and labels:
# [1] = test system: Staphylococcus epidermidis EPI1; experiment: MIC, standard agar-dilution assay, Staphylococcus epidermidis EPI1; format: cell-based
# [2] = test system: Streptococcus bovis 80; experiment: MIC, broth-dilution microtiter test, Streptococcus bovis 80; format: cell-based; conditions: Streptococcus bovis 80, broth-dilution microtiter
# Excerpt: (§1) The MIC's in Table X were obtained using conventional broth-dilution microtiter tests.
# [3] = test system: Haemophilus influenzae R252; experiment: MIC, standard agar-dilution assay, Haemophilus influenzae R252; format: cell-based
# [4] = test system: Staphylococcus aureus V41; experiment: MIC, standard agar-dilution assay, Staphylococcus aureus V41; format: cell-based
# [5] = test system: Pasteurella multocida 17E; experiment: MIC, broth-dilution microtiter test, Pasteurella multocida 17E; format: cell-based; conditions: Pasteurella multocida 17E, bovine isolate, broth-dilution microtiter
# Excerpt: as §1
# [6] = test system: Streptococcus Group D X66; experiment: MIC, standard agar-dilution assay, Streptococcus Group D X66; format: cell-based; conditions: Streptococcus Group D X66, agar dilution
# [7] = test system: Staphylococcus aureus X1.1; experiment: MIC, standard agar-dilution assay, Staphylococcus aureus X1.1; format: cell-based
# [8] = test system: Streptococcus pyogenes C203; experiment: In vivo protection of mice experimentally infected with S. pyogenes C203; conditions: mice, doses given 1 and 4 hours post-infection; for ED50: Streptococcus pyogenes
# Procedure: The C-20 modified derivatives of this invention have shown in vivo antimicrobial activity against experimentally-induced infections in laboratory animals. When two doses of test compound were administered to mice experimentally infected with S. pyogenes C203, the activity observed was measured as an ED50 value [effective dose in mg/kg to protect 50% of the test animals: see Warren Wick, et al., J. Bacteriol. 81, 233-235 (1961)].
# [9] = test system: Staphylococcus aureus; experiment: MIC, broth-dilution microtiter test, Staphylococcus aureus; format: cell-based
# Excerpt: as §1
# [10] = test system: Pasteurella multocida 60A; experiment: MIC, broth-dilution microtiter test, Pasteurella multocida 60A; format: cell-based
# Excerpt: as §1
# [11] = test system: Mycoplasma gallisepticum; experiment: MIC, broth-dilution microtiter test, Mycoplasma gallisepticum; format: cell-based
# Excerpt: as §1
# [12] = test system: Mycoplasma hyopneumoniae; experiment: MIC, broth-dilution microtiter test, Mycoplasma hyopneumoniae; format: cell-based
# Excerpt: as §1
# [13] = test system: Mycoplasma hyorhinis; experiment: MIC, broth-dilution microtiter test, Mycoplasma hyorhinis; format: cell-based
# Excerpt: as §1
# [14] = test system: Haemophilus influenzae Holt; experiment: MIC, standard agar-dilution assay, Haemophilus influenzae Holt; format: cell-based
# [15] = test system: Pasteurella hemolytica 22C; experiment: MIC, broth-dilution microtiter test, Pasteurella hemolytica 22C; format: cell-based
# Excerpt: as §1
# [16] = test system: Streptococcus pneumoniae Park I; experiment: microbe, parasite or virus in culture; format: cell-based
# [17] = test system: Staphylococcus epidermidis EPI2; experiment: MIC, standard agar-dilution assay, Staphylococcus epidermidis EPI2; format: cell-based
# [18] = test system: Mycoplasma synoviae; experiment: MIC, broth-dilution microtiter test, Mycoplasma synoviae; format: cell-based
# Excerpt: as §1
# [19] = test system: Streptococcus Group 9960; experiment: MIC, standard agar-dilution assay, Streptococcus Group 9960; format: cell-based; conditions: Streptococcus Group 9960, agar dilution
# [20] = test system: Staphylococcus aureus X400; experiment: MIC, standard agar-dilution assay, Staphylococcus aureus X400; format: cell-based
# [21] = test system: Staphylococcus aureus S13E; experiment: MIC, standard agar-dilution assay, Staphylococcus aureus S13E; format: cell-based
# [22] = test system: Streptococcus pyogenes C203; experiment: MIC, standard agar-dilution assay, Streptococcus pyogenes C203; format: cell-based; conditions: Streptococcus pyogenes C203; agar dilution
# [23] = Staphylococcus epidermidis EPI1, agar dilution
# [24] = Haemophilus influenzae R252, ampicillin-resistant strain, agar dilution
# [25] = Staphylococcus aureus X1.1, agar dilution
# [26] = Pasteurella multocida 60A, avian isolate, broth-dilution microtiter
# [27] = Mycoplasma gallisepticum, broth-dilution microtiter
# [28] = Mycoplasma hyorhinis, broth-dilution microtiter
# [29] = Haemophilus influenzae Holt, ampicillin-sensitive strain, agar dilution
# [30] = Pasteurella hemolytica 22C, broth-dilution microtiter
# [31] = Staphylococcus epidermidis EPI2, agar dilution
# [32] = Mycoplasma synoviae, broth-dilution microtiter
# [33] = Staphylococcus aureus X400, methicillin-resistant strain, agar dilution
# [34] = Staphylococcus aureus S13E, agar dilution
# [35] = Staphylococcus aureus V41, penicillin-resistant strain, agar dilution
# [36] = Streptococcus pneumoniae Park I, agar dilution
compound,measurement,setting,value
CCC1OC(=O)CC(O)C(C)C(OC2OC(C)C(O)C(N(C)C)C2O)C(CC2OCCO2)CC(C)C(=O)C=CC(C)=CC1COC1OC(C)C(O)C(OC)C1OC (stereo not drawn) [Compound 74],MIC,"[1]; Staphylococcus epidermidis, EPI1",0.5 µg/mL
same,MIC,"[2]; Streptococcus equinus, read-out: MIC",6.25 µg/mL
same,MIC,"[3]; Haemophilus influenzae, R252",32 µg/mL
same,MIC,"[4]; Staphylococcus aureus, V41",1 µg/mL
same,MIC,[5]; read-out: MIC,25 µg/mL
same,MIC,[6]; read-out: MIC,8 µg/mL
same,MIC,"[7]; Staphylococcus aureus, X1.1",0.5 µg/mL
same,ED50,"[8]; C203, sc, subcutaneous, read-out: ED50, Subcutaneous",3.3 mg/kg
same,ED50,"[8]; C203, oral, read-out: ED50, Oral",> 25 mg/kg
same,MIC,[9],3.12 µg/mL
same,MIC,"[10]; Pasteurella multocida, 60A",50 µg/mL
same,MIC,[11]; Mycoplasmoides gallisepticum,3.12 µg/mL
same,MIC,[12]; Mesomycoplasma hyopneumoniae,1.56 µg/mL
same,MIC,[13]; Mycoplasma,50 µg/mL
same,MIC,[14]; Haemophilus influenzae,32 µg/mL
same,MIC,"[15]; Pasteurella, 22C",50 µg/mL
same,MIC,[16]; Streptococcus pneumoniae,0.25 µg/mL
same,MIC,"[17]; Staphylococcus epidermidis, EPI2",0.25 µg/mL
same,MIC,[18]; Mycoplasmopsis synoviae,6.25 µg/mL
same,MIC,"[19]; GROUP9960, read-out: MIC",8 µg/mL
same,MIC,"[20]; Staphylococcus aureus, X400",2 µg/mL
same,MIC,"[21]; Staphylococcus aureus, S13E",0.5 µg/mL
20-DH-20-O-(Phenylsulfinyl)desmycosin [Compound 25],MIC,[1]; [23],0.25 µg/mL
same,MIC,[22],0.25 µg/mL
same,MIC,[2],3.12 µg/mL
same,MIC,[3]; [24],4 µg/mL
same,MIC,[5],12.5 µg/mL
same,MIC,[6],4 µg/mL
same,MIC,[7]; [25],0.25 µg/mL
same,"ED50, Oral",[8]; oral,45 mg/kg × 2
same,"ED50, Subcutaneous",[8]; subcutaneous,5.0 mg/kg × 2
same,MIC,[9]; broth-dilution microtiter,0.39 µg/mL
same,MIC,[10]; [26],6.25 µg/mL
same,MIC,[11]; [27],< 0.05 µg/mL
same,MIC,"[12]; Mycoplasma hyopneumoniae, broth-dilution microtiter",12.5 µg/mL
same,MIC,[13]; [28],"-- (Not active at 50 mcg/ml, the highest level tested)"
same,MIC,[14]; [29],8 µg/mL
same,MIC,[15]; [30],12.5 µg/mL
same,MIC,[17]; [31],0.12 µg/mL
same,MIC,[18]; [32],0.19 µg/mL
same,MIC,[19],4 µg/mL
same,MIC,[20]; [33],0.25 µg/mL
same,MIC,[21]; [34],0.25 µg/mL
"CCC1OC(=O)CC(O)C(C)C(OC2OC(C)C(O)C(N(C)C)C2O)C(CCOc2ncnc3ccccc23)CC(C)C(=O)C=CC(C)=CC1COC1OC(C)C(O)C(OC)C1OC (stereo not drawn) [Compound 51, 20-DH-20-O-(Quinazolin-4-yl)desmycosin]",MIC,[1]; [23],0.25 µg/mL
same,MIC,[22],0.5 µg/mL
same,MIC,[2],0.78 µg/mL
same,MIC,[3]; [24],32 µg/mL
same,MIC,[4]; [35],0.25 µg/mL
same,MIC,[5],12.5 µg/mL
same,MIC,[6],4 µg/mL
same,MIC,[7]; [25],0.25 µg/mL
same,"ED50, Oral",[8]; oral,> 50 mg/kg × 2
same,"ED50, Subcutaneous",[8]; subcutaneous,5.4 mg/kg × 2
same,MIC,[9]; broth-dilution microtiter,0.78 µg/mL
same,MIC,[10]; [26],12.5 µg/mL
same,MIC,[11]; [27],≤ 0.048 µg/mL
same,MIC,[13]; [28],12.5 µg/mL
same,MIC,[14]; [29],16 µg/mL
same,MIC,[15]; [30],"-- (Not active at 50 mcg/ml, the highest level tested)"
same,MIC,[16]; [36],0.5 µg/mL
same,MIC,[17]; [31],0.12 µg/mL
same,MIC,[18]; [32],0.39 µg/mL
same,MIC,[19],4 µg/mL
same,MIC,[20]; [33],0.5 µg/mL
same,MIC,[21]; [34],0.25 µg/mL
"CCC1OC(=O)CC(O)C(C)C(OC2OC(C)CC(N(C)C)C2O)C(CCOc2ccccc2)CC(C)C(=O)C=CC(C)=CC1COC1OC(C)C(O)C(OC)C1OC (stereo not drawn) [Compound 70, 20-DH-20-O-Phenyl-4'-deoxydesmycosin]",MIC,[1]; [23],0.25 µg/mL
same,MIC,[22],0.5 µg/mL
same,MIC,[2],6.25 µg/mL
same,MIC,[3]; [24],4 µg/mL
same,MIC,[4]; [35],0.25 µg/mL
same,MIC,[5],12.5 µg/mL
same,MIC,[6],2 µg/mL
same,MIC,[7]; [25],0.25 µg/mL
same,"ED50, Oral",[8]; oral,7 mg/kg × 2
same,"ED50, Subcutaneous",[8]; subcutaneous,3.1 mg/kg × 2
same,MIC,[9]; broth-dilution microtiter,0.78 µg/mL
same,MIC,[10]; [26],12.5 µg/mL
same,MIC,[11]; [27],0.39 µg/mL
same,MIC,[13]; [28],12.5 µg/mL
same,MIC,[14]; [29],4 µg/mL
same,MIC,[15]; [30],50 µg/mL
same,MIC,[16]; [36],0.5 µg/mL
same,MIC,[17]; [31],0.12 µg/mL
same,MIC,[18]; [32],0.78 µg/mL
same,MIC,[19],4 µg/mL
same,MIC,[20]; [33],0.25 µg/mL
same,MIC,[21]; [34],0.25 µg/mL
